The subject of one test is analgesic response. Particulars: cited from earlier work.
Test [1] concerns acute focal cerebral ischemia. More on the design: species or system cats. The settings on record: in vivo, ip.
Test [2] has as its system neurologic deficits secondary to cerebral ischemia. Particulars: cited from earlier work.
Test [3] has as its system neurologic deficits produced by unilateral carotid ligation. The settings on record: cited from earlier work.

Read-outs that look alike come from different tables or passages of the source.

In the case of “Dynorphin: opioid peptide first isolated from pituitary glands; natural compound's full 17 amino acid sequence”, the analgesic potency entry with analgesic response (mice) is listed as “little or no analgesic potency”. Also, the “effect on narcotic analgesia in tolerant animals” value in the test on analgesic response (morphine-tolerant animals / tolerant hosts) was “potentiates the analgetic effect of both morphine and β-endorphin”. Moreover, in the test with analgesic response (naive animals, analgesic response to morphine and β-endorphin / narcotic analgesics), the “effect on narcotic analgesia in naive animals” value was “inhibits, or antagonizes, the analgesic response to both morphine and β-endorphin”.
For the compound `O=C1CC[C@@]2(O)[C@H]3Cc4ccc(O)c5c4[C@@]2(CCN3CC2CC2)[C@H]1O5` [naltrexone], in test [1], the “prolonging survival (mortality as a function of time following the cerebral artery occlusions)” value was “prolonged survival”.
As for `C=CCN1CC[C@]23c4c5ccc(O)c4O[C@H]2C(=O)CC[C@@]3(O)[C@H]1C5` [naloxone, 17 - allyl - 4,5a - epoxy - 3,14 - dihydroxymorphinan - 6 - one], the “neurologic deficits secondary to cerebral ischemia” value in test [2] (man, Lancet 2:272-275 (1981)) is listed as “can reverse neurologic deficits”. The “neurologic function and infarct size” value in test [3] (gerbils, temporary carotid occlusion, Levy et al. (1982)) is on record as “did not produce improved neurologic function or alter infarct size”. The “neurologic deficits produced by unilateral carotid ligation” value in test [3] (gerbils, intraperitoneal administration, Science 215:69-71 (1982)) is given as “can be reversed”. Besides, the “survival and neurologic function” value in test [3] (several different models of stroke in gerbils, Holaday and D'Amato (1982)) is recorded as “no beneficial effect”. For the same compound, in test [1], the “prolonging survival (mortality as a function of time following the cerebral artery occlusions)” value is given as “prolonged survival”.
For `CN1CC[C@]23c4c5ccc(O)c4O[C@H]2[C@@H](O)C=C[C@H]3[C@H]1C5` [morphine], the “neurologic deficits secondary to cerebral ischemia” value in test [2] (in vivo) is “exacerbates them”.
